We go through 8 compounds from ChEMBL document CHEMBL1201862, “PubChem BioAssay data set” (2004).

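Interpolation was linear, between the two tested concentrations surrounding the appropriate level; five concentrations were tested over 48 hours in 96-well plates. GI50 is the concentration that inhibits growth by half.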 Active and inactive are the calls of the source. Rule as the data show it: active = GI50 up to about 1.1 µM and inactive = higher.

Among the test systems are OVCAR-5; HCT-116; IGROV-1; UACC-257; KM12; SW-620; K562; RPMI-8226; A498; SN12C; RXF 393; MDA-MB-231; SF-539; SR; SF-268; HCT-15; HOP-62; SNB-19; T47D; EKVX.
Holding throughout (assay): NCI anticancer screen, dose series, 48 h

Turning to `COc1ccc(/N=N/c2c(C)c(C#N)c(=S)n(C3OC(CO)C(O)C(O)C3O)c2-c2ccccc2)cc1` (stereo not given), the GI50 in the assay on OVCAR-5 was 36.9 µM (inactive); in the assay on HCT-116 it was 30.1 µM (inactive); in the assay on IGROV-1 it was 30.4 µM (inactive); with UACC-257, 48.8 µM (inactive); in the assay on KM12, 43.5 µM (inactive); in the assay with SW-620, 26.1 µM (inactive). In addition, the GI50 is 19.3 µM (inactive) with K562; 36.1 µM (inactive) in the assay on RPMI-8226; 20.9 µM (inactive) in the assay on A498; 32.3 µM (inactive) with SN12C; 28 µM (inactive) with RXF 393; 51.1 µM (inactive) with MDA-MB-231. Besides, the GI50 in the assay with SF-539 is 42.7 µM (inactive); in the assay with SR, 32.1 µM (inactive); with SF-268, 44.9 µM (inactive); in the assay on HCT-15 it was 34 µM; with HOP-62, 37.9 µM (inactive); in the assay on SNB-19, 41.3 µM (inactive). Moreover, the GI50 with T47D is 27.1 µM (inactive).

In the case of `Cc1c(/N=N/c2ccccc2)c(-c2ccccc2)n(C2OC(CO)C(O)C(O)C2O)c(=S)c1C#N` (stereo not given), the GI50 in the assay on OVCAR-5 is 13.8 µM (inactive); in the assay with IGROV-1 it was 5.75 µM (inactive); in the assay on KM12 it was 2.98 µM (inactive); with SW-620 it was 4.97 µM (inactive); with K562 it was 3.21 µM (inactive); with RPMI-8226, 4.06 µM (inactive). The GI50 was 14.4 µM (inactive) in the assay with A498; 13.8 µM (inactive) with EKVX; 6.22 µM (inactive) with SN12C; 2.5 µM (inactive) in the assay on RXF 393; 10 µM (inactive) with MDA-MB-231; 5.13 µM (inactive) in the assay on SF-539. For the same compound, the GI50 in the assay on SR was > 100 µM (inactive); in the assay on SF-268, 8.38 µM (inactive); in the assay on HCT-15 it was 5.01 µM; in the assay with HOP-62 it was 7.14 µM (inactive); with SNB-19, 7.64 µM (inactive); with T47D it was 0.245 µM (active).

Turning to `Cc1ccc2nc(NC(=O)C(=O)C3C(=O)NC(=S)NC3=O)sc2c1`, the GI50 is > 100 µM (inactive) in the assay on OVCAR-5; > 100 µM (inactive) in the assay on HCT-116; 49.4 µM (inactive) in the assay on IGROV-1; > 100 µM (inactive) in the assay on UACC-257; > 100 µM (inactive) in the assay on KM12; > 100 µM (inactive) in the assay on SW-620. Moreover, the GI50 in the assay with RPMI-8226 is > 100 µM (inactive); with A498, > 100 µM (inactive); with EKVX, > 100 µM (inactive); in the assay on SN12C, > 100 µM (inactive); in the assay with RXF 393 it was 43.6 µM (inactive); with MDA-MB-231 it was > 100 µM (inactive). The GI50 in the assay with SF-539 is > 100 µM (inactive); with SR, > 10 µM (inactive); in the assay with SF-268 it was > 100 µM (inactive); in the assay with HCT-15, above 100 µM; in the assay with HOP-62, > 100 µM (inactive); with SNB-19, > 100 µM (inactive). Further, the GI50 in the assay on T47D was > 100 µM (inactive).

Regarding `COC(=O)C1C=CN(N(C)C)C2=C1C(=O)c1c(O)cccc1C2=O` (stereo not given), the GI50 in the assay with OVCAR-5 was 2.42 µM (inactive); in the assay on HCT-116, 1.92 µM (inactive); in the assay on IGROV-1, 2.1 µM (inactive); with UACC-257 it was 1.41 µM (inactive); in the assay with KM12, 2.07 µM (inactive); with SW-620 it was 2.28 µM (inactive). The GI50 is 3.09 µM (inactive) in the assay with K562; 0.887 µM (active) in the assay with RPMI-8226; 2.81 µM (inactive) in the assay on A498; 2.79 µM (inactive) with EKVX; 1.73 µM (inactive) in the assay with SN12C; 2.79 µM (inactive) in the assay on RXF 393. Further, the GI50 in the assay with MDA-MB-231 is 1.89 µM (inactive); in the assay with SR, 0.152 µM (active); in the assay on SF-268 it was 3.83 µM (inactive); in the assay on HCT-15, 1.51 µM; in the assay on HOP-62, 2.68 µM (inactive); in the assay with SNB-19, 2.34 µM (inactive). In the assay with T47D, the GI50 was 2.32 µM (inactive).

In the case of `CC(C)(C)c1cc2c(O)c(c1)C(c1ccccc1)c1cc(C(C)(C)C)cc(c1O)Cc1cc(C(C)(C)C)cc(c1O)C(c1ccccc1)c1cc(C(C)(C)C)cc(c1O)C2` (stereo not given), the GI50 in the assay with OVCAR-5, in the assay on HCT-116, in the assay on IGROV-1, in the assay on UACC-257, in the assay on KM12 and with SW-620 was > 100 µM (inactive) throughout. Moreover, the GI50 in the assay with K562, in the assay with A498, in the assay with EKVX, with SN12C, with RXF 393 and in the assay with MDA-MB-231 was > 100 µM (inactive) throughout. The GI50 is > 100 µM (inactive) in the assay with SF-539; 62.7 µM (inactive) with SR; > 100 µM (inactive) with SF-268; above 100 µM with HCT-15; > 100 µM (inactive) in the assay with HOP-62; > 100 µM (inactive) in the assay on SNB-19. Further, the GI50 in the assay with T47D was > 100 µM (inactive).

With `COC(=O)c1cc(-c2ccc3ccccc3c2)nc(O)c1C#N`, the GI50 in the assay on OVCAR-5, with HCT-116, in the assay with IGROV-1, with UACC-257, in the assay with KM12 and in the assay with SW-620 was > 100 µM (inactive) in each case. Besides, the GI50 in the assay on RPMI-8226 was > 100 µM (inactive); in the assay on A498 it was > 100 µM (inactive); in the assay with EKVX, 71.4 µM (inactive); with SN12C, > 100 µM (inactive); in the assay on RXF 393 it was > 100 µM (inactive); in the assay on MDA-MB-231, > 100 µM (inactive). Besides, the GI50 in the assay with SF-539 is > 100 µM (inactive); with SR, > 100 µM (inactive); with SF-268 it was > 100 µM (inactive); in the assay on HCT-15 it was above 100 µM; with HOP-62 it was > 100 µM (inactive); in the assay on SNB-19, > 100 µM (inactive). For the same compound, the GI50 with T47D was > 100 µM (inactive).

In the case of `O=c1[nH]c(=O)c2c3n(cc2[nH]1)CCCCC3`, the GI50 in the assay with OVCAR-5, in the assay on HCT-116, in the assay on IGROV-1, with UACC-257, with KM12 and with K562 was > 100 µM (inactive) each time. Further, the GI50 was > 100 µM (inactive) with RPMI-8226; > 100 µM (inactive) with A498; > 100 µM (inactive) in the assay with EKVX; > 100 µM (inactive) with SN12C; > 100 µM (inactive) with RXF 393; 64.4 µM (inactive) with MDA-MB-231. Further, the GI50 is > 100 µM (inactive) with SR; > 100 µM (inactive) with SF-268; above 100 µM in the assay on HCT-15; > 100 µM (inactive) in the assay on HOP-62; > 100 µM (inactive) in the assay with SNB-19; > 100 µM (inactive) with T47D.

For `Cc1ccc(S(=O)(=O)n2cc(C#N)c(C#N)c2)cc1`, the GI50 in the assay on OVCAR-5 was 27.9 µM (inactive); in the assay on HCT-116, 31 µM (inactive); with IGROV-1, 31.1 µM (inactive); with UACC-257, 29.2 µM (inactive); in the assay on KM12 it was 31 µM (inactive); with SW-620 it was 34.6 µM (inactive). Further, the GI50 in the assay on K562 was 33.3 µM (inactive); in the assay with A498 it was 24.7 µM (inactive); in the assay with EKVX, 30.2 µM (inactive); in the assay with SN12C, 29.1 µM (inactive); in the assay with RXF 393, 32.3 µM (inactive); in the assay with MDA-MB-231, 42.6 µM (inactive). Besides, the GI50 was 19.6 µM (inactive) in the assay with SF-539; 24.4 µM (inactive) in the assay on SR; 26.6 µM (inactive) with SF-268; 17.9 µM in the assay with HCT-15; 24.5 µM (inactive) in the assay on HOP-62; > 10 µM (inactive) in the assay on SNB-19. In the assay with T47D, the GI50 is 26.4 µM (inactive).
